The text below walks through data of patent US12370166B2, “Pentadecanoylcarnitine for treatment of conditions related to the quality of aging and longevity” (EPITRACKER, INC., priority 2021, dated 2025).

Assay [1] has as its system AMP-activated protein kinase (AMPK). To be noted: cited from earlier work.
In assay [2] the test system is in vivo model of nonalcoholic fatty liver disease. Conditions: daily supplementation over 11 weeks; cited from earlier work.
The subject of assay [3] is mitochondrial function. Conditions: cited from earlier work.
Assay [4] has as its target T1, Cholinergic receptor muscarinic 1 (Homo sapiens, UniProt P11229).
T1 sequence (P11229 1-460): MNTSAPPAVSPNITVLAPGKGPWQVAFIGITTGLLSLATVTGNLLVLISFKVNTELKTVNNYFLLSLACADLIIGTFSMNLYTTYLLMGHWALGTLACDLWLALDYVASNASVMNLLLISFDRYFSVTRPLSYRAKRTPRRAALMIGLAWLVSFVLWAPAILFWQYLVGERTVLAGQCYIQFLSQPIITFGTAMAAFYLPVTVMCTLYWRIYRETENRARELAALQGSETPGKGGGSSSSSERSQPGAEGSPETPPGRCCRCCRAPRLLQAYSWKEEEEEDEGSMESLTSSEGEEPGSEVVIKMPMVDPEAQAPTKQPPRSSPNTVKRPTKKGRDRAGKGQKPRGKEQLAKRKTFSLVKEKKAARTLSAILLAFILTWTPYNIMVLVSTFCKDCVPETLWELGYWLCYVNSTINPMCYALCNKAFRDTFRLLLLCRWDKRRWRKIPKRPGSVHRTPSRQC
The experiment in a line: Receptor-based pharmacological activity, antagonist. The format is biochemical. To be noted: for IC50: read-out: RC50 (IC50). The protocol:
Methods for this study have been previously described (Venn-Watson, S., Lumpkin, R., Dennis, E. A. Efficacy of dietary odd-chain saturated fatty acid pentadecanoic acid parallels broad associated health benefits in humans: could it be essential? Sci Rep 10:8161 (2020)). Significant activities of pentadecanoylcarnitine were those tagged as having maximum pharmacological activities that were greater than or equal to 70% that of the internal control between the concentrations of 1 to 20 μM. Significant pharmacological activities caused by pentadecanoylcarnitine were compared with results from the same assays using pentadecanoic acid (C15:0).

Assay [5] deals with peroxisome proliferator-activated receptor (PPAR) α/δ. Conditions: cited from earlier work.
The subject of assay [6] is red blood cell membranes. Conditions: cited from earlier work.
The test system of assay [7] is diet-induced obese mice modeling type 2 diabetes. Conditions: daily oral, approximately 12 weeks; cited from earlier work.
The subject of assay [8] is breast cancer cells. Conditions: cited from earlier work.
Assay [9] deals with human cell systems mimicking various disease states. Conditions: cited from earlier work.
Assay [10] has as its system CASM3C cell system. Put plainly: Human primary cell phenotypic profiling, CASM3C cell system (cardiovascular inflammation, restenosis). Format: cell-based. To be noted: 6.7 μM stated for pentadecanoylcarnitine. How it is done: (§1) Methods for this human primary cell phenotypic profiling study were those previously described (Venn-Watson, S., Lumpkin, R., Dennis, E. A. Efficacy of dietary odd-chain saturated fatty acid pentadecanoic acid parallels broad associated health benefits in humans: could it be essential? Sci Rep 10:8161 (2020)). Significant activities of pentadecanoylcarnitine were those that were equal to or greater than 0.1|log 10| at 6.7 μM. Biomarkers with significant changes caused by pentadecanoylcarnitine were compared with results from the same study using pentadecanoic acid (C15:0).

Assay [11] has as its system KF3CT cell system. Put plainly: Human primary cell phenotypic profiling, KF3CT cell system (dermatitis, psoriasis). Format: cell-based. Conditions: 6.7 μM stated for pentadecanoylcarnitine. How it is done:
as §1

The test system of assay [12] is 4H cell system. The experiment in a line: Human primary cell phenotypic profiling, 4H cell system (autoimmunity, allergy, asthma). Format: cell-based. To be noted: 6.7 μM stated for pentadecanoylcarnitine, NS = not significant. How it is done:
as §1

In assay [13] the test system is SAg cell system. The experiment in a line: Human primary cell phenotypic profiling, SAg cell system (chronic inflammation, autoimmune disease). The format is cell-based. To be noted: 6.7 μM stated for pentadecanoylcarnitine. How it is done: as §1
Assay [14] relates to BE3C cell system. Put plainly: Human primary cell phenotypic profiling, BE3C cell system (COPD, lung inflammation). The format is cell-based. Conditions: 6.7 μM stated for pentadecanoylcarnitine. The protocol: as §1
In assay [15] the test system is MyoF cell system. Put plainly: Human primary cell phenotypic profiling, MyoF cell system (wound healing, matrix remodeling, fibrosis). The format is cell-based. Conditions: 6.7 μM stated for pentadecanoylcarnitine. The protocol:
as §1

For assay [16], the system named is HDF3CGF cell system. Put plainly: Human primary cell phenotypic profiling, HDF3CGF cell system (fibrosis, chronic inflammation). Conditions: 6.7 μM stated for pentadecanoylcarnitine. Format: cell-based. The protocol: as §1
For assay [17], the system named is /IMphg cell system. Put plainly: Human primary cell phenotypic profiling, /IMphg cell system (chronic inflammation, restenosis, cardiovascular disease). Format: cell-based. Conditions: 6.7 μM stated for pentadecanoylcarnitine. The protocol:
as §1

Assay [18] deals with LPS cell system. The experiment in a line: Human primary cell phenotypic profiling, LPS cell system (chronic inflammation, cardiovascular disease). The format is cell-based. To be noted: 6.7 μM stated for pentadecanoylcarnitine. How it is done: as §1
The mark [19] stands for this setting: Antagonist, positive control Atropine.

As a reminder, the IC50 is the concentration needed to halve the response being measured. Regarding `CCCCCCCCCCCCCCC(=O)O` [Pentadecanoic acid (C15:0), Pentadecanoic acid], in assay [1], the AMPK activity result is recorded as “activator”. In [2], the Anemia result is reported as “attenuated”, the Cholesterol entry is on record as “lowered”, the Inflammation result is reported as “lowered” and the Liver fibrosis result is “attenuated”. The Triglycerides result in assay [2] was “lowered”. Moreover, the “Effect on mitochondrial function” value in assay [3] is “repair”. Also, the Emax in assay [4] (Antagonist, positive control Atropine, 1 to 20 μM, read-out: Max Response (%) Compared to Positive Control) is 0%. The IC50 in assay [4] (setting [19]) was over 20 µM. Also, the “PPAR α/δ agonist activity” value in assay [5] is “dual, partial”. In addition, in [6], the “Effect on stability of red blood cell membranes” value was “improve”. Moreover, in [7], the “Body weight gain compared to non-supplemented controls” value is listed as “lower”, the “Cholesterol compared to non-supplemented controls” value was “lower”, the “Glucose compared to non-supplemented controls” value was “lower” and the “Pro-inflammatory cytokines compared to non-supplemented controls” value is “lower”. The “Effect on proliferation of breast cancer cells” value in assay [8] was “decrease”. Besides, the “Properties in human cell systems mimicking various disease states” value in [9] was “anti-inflammatory and antifibrotic properties”.
For `CCCCCCCCCCCCCCC(=O)O[C@H](CC(=O)[O-])C[N+](C)(C)C` [Pentadecanoylcarnitine, pentadecanoylcarnitine], the Proliferation change result in assay [10] was “+0.10 log 10”. The same molecule gave a CXCL10/IP-10 biomarker change in [11] of −0.10 log 10. In addition, in assay [4] (Antagonist, positive control Atropine, 1 to 20 μM), the “Max Response (%) Compared to Positive Control” value is 77%. Besides, in [4] (setting [19]), the IC50 turned out to be 10.5 µM. Also, in assay [4] (at approximately 1 to 20 μM), the “Pharmacological activity at cholinergic receptor muscarinic 1” value is recorded as “antagonist”. The molecule further gave a VEGFR2 biomarker change in assay [12] of −0.11 log 10. In assay [13], the “B-Cell Proliferation change” value is on record as −0.17 log 10 and the E-Selectin biomarker change was −0.11 log 10. In assay [14], the CXCL8/IL-8 biomarker change is −0.21 log 10, the CXCL9/MIG biomarker change is recorded as −0.60 log 10, the CXCL10/IP-10 biomarker change is on record as −0.10 log 10 and the CXCL11/I-TAC biomarker change was −0.54 log 10. In [14], this molecule yielded an HLA-DR biomarker change of −0.63 log 10, an IL-1a biomarker change of −0.19 log 10, an MMP-1 biomarker change of −0.27 log 10 and an MMP-9 biomarker change of −0.34 log 10. Also, in [14], the PAI-1 biomarker change was −0.24 log 10, the tPA biomarker change was −0.43 log 10, the uPA biomarker change was −0.28 log 10 and the uPAR biomarker change is listed as −0.12 log 10. The “α-SM Actin biomarker change” value in assay [15] is given as −0.26 log 10. This molecule also displayed an MMP-1 biomarker change in assay [16] of −0.12 log 10. In assay [17], this molecule showed an MCP-1 biomarker change of −0.25 log 10 and a sIL-10 biomarker change of −0.13 log 10. For the same molecule, the “Tissue Factor biomarker change” value in assay [18] is recorded as “+0.11 log 10”.
